Values after ≈ are worked out from the molar mass of the structure shown.
Columns and labels:
Type in all cases: functional
[1] = tested on: Sporothrix schenckii; experiment: Antifungal activity against Sporothrix schenckii P0019 isolate from cutaneous-lymphatic sporotrichosis patient after 72 hrs by modified NCCLS M38-A method
[2] = tested on: Sporothrix schenckii; experiment: Antifungal activity against Sporothrix schenckii P0019 isolate from cutaneous-lymphatic sporotrichosis patient after 72 hrs by Sensititre YeastOne method
[3] = tested on: Sporothrix schenckii; experiment: Antifungal activity against Sporothrix schenckii P0019 isolate from cutaneous-lymphatic sporotrichosis patient after 72 hrs by ATB Fungus 2 method
[4] = tested on: Sporothrix schenckii; experiment: Antifungal activity against Sporothrix schenckii PSSA81 isolate from cutaneous-lymphatic sporotrichosis patient after 72 hrs by Sensititre YeastOne method
[5] = tested on: Sporothrix schenckii; experiment: Antifungal activity against Sporothrix schenckii PSSA81 isolate from cutaneous-lymphatic sporotrichosis patient after 72 hrs by ATB Fungus 2 method
[6] = tested on: Sporothrix schenckii; experiment: Antifungal activity against Sporothrix schenckii P25013 isolate from cutaneous-lymphatic sporotrichosis patient after 72 hrs by modified NCCLS M38-A method
[7] = tested on: Sporothrix schenckii; experiment: Antifungal activity against Sporothrix schenckii P25013 isolate from cutaneous-lymphatic sporotrichosis patient after 72 hrs by Sensititre YeastOne method
[8] = tested on: Sporothrix schenckii; experiment: Antifungal activity against Sporothrix schenckii P25013 isolate from cutaneous-lymphatic sporotrichosis patient after 72 hrs by ATB Fungus 2 method
[9] = tested on: Sporothrix schenckii; experiment: Antifungal activity against Sporothrix schenckii P20825 isolate from cutaneous-lymphatic sporotrichosis patient after 72 hrs by modified NCCLS M38-A method
[10] = tested on: Sporothrix schenckii; experiment: Antifungal activity against Sporothrix schenckii P20825 isolate from cutaneous-lymphatic sporotrichosis patient after 72 hrs by Sensititre YeastOne method
[11] = tested on: Sporothrix schenckii; experiment: Antifungal activity against Sporothrix schenckii P20825 isolate from cutaneous-lymphatic sporotrichosis patient after 72 hrs by ATB Fungus 2 method
[12] = tested on: Sporothrix schenckii; experiment: Antifungal activity against Sporothrix schenckii P30019 isolate from cutaneous-lymphatic sporotrichosis patient after 72 hrs by ATB Fungus 2 method
[13] = tested on: Sporothrix schenckii; experiment: Antifungal activity against Sporothrix schenckii P14954 isolate from cutaneous-lymphatic sporotrichosis patient after 72 hrs by modified NCCLS M38-A method
[14] = tested on: Sporothrix schenckii; experiment: Antifungal activity against Sporothrix schenckii P14954 isolate from cutaneous-lymphatic sporotrichosis patient after 72 hrs by Sensititre YeastOne method
[15] = tested on: Sporothrix schenckii; experiment: Antifungal activity against Sporothrix schenckii P14954 isolate from cutaneous-lymphatic sporotrichosis patient after 72 hrs by ATB Fungus 2 method
[16] = tested on: Sporothrix schenckii; experiment: Antifungal activity against Sporothrix schenckii MRSS4 isolate from cutaneous-lymphatic sporotrichosis patient after 72 hrs by modified NCCLS M38-A method
[17] = tested on: Sporothrix schenckii; experiment: Antifungal activity against Sporothrix schenckii MRSS4 isolate from cutaneous-lymphatic sporotrichosis patient after 72 hrs by Sensititre YeastOne method
[18] = tested on: Sporothrix schenckii; experiment: Antifungal activity against Sporothrix schenckii MRSS4 isolate from cutaneous-lymphatic sporotrichosis patient after 72 hrs by ATB Fungus 2 method
[19] = tested on: Sporothrix schenckii; experiment: Antifungal activity against Sporothrix schenckii P24223 isolate from cutaneous-lymphatic sporotrichosis patient after 72 hrs by modified NCCLS M38-A method
[20] = tested on: Sporothrix schenckii; experiment: Antifungal activity against Sporothrix schenckii P24223 isolate from cutaneous-lymphatic sporotrichosis patient after 72 hrs by ATB Fungus 2 method
[21] = tested on: Sporothrix schenckii; experiment: Antifungal activity against Sporothrix schenckii PSCC1 isolate from cutaneous-lymphatic sporotrichosis patient after 72 hrs by modified NCCLS M38-A method
[22] = tested on: Sporothrix schenckii; experiment: Antifungal activity against Sporothrix schenckii PSCC1 isolate from cutaneous-lymphatic sporotrichosis patient after 72 hrs by ATB Fungus 2 method
[23] = tested on: Sporothrix schenckii; experiment: Antifungal activity against Sporothrix schenckii P24255 isolate from cutaneous-lymphatic sporotrichosis patient after 72 hrs by modified NCCLS M38-A method
[24] = tested on: Sporothrix schenckii; experiment: Antifungal activity against Sporothrix schenckii P24255 isolate from cutaneous-lymphatic sporotrichosis patient after 72 hrs by ATB Fungus 2 method
[25] = tested on: Sporothrix schenckii; experiment: Antifungal activity against Sporothrix schenckii P10012 isolate from cutaneous-lymphatic sporotrichosis patient after 72 hrs by modified NCCLS M38-A method
[26] = tested on: Sporothrix schenckii; experiment: Antifungal activity against Sporothrix schenckii P10012 isolate from cutaneous-lymphatic sporotrichosis patient after 72 hrs by Sensititre YeastOne method
[27] = tested on: Sporothrix schenckii; experiment: Antifungal activity against Sporothrix schenckii P1621 isolate from cutaneous-lymphatic sporotrichosis patient after 72 hrs by modified NCCLS M38-A method
[28] = tested on: Sporothrix schenckii; experiment: Antifungal activity against Sporothrix schenckii SSA29 isolate from cutaneous-lymphatic sporotrichosis patient after 72 hrs by Sensititre YeastOne method
[29] = tested on: Sporothrix schenckii; experiment: Antifungal activity against Sporothrix schenckii P26187 isolate from cutaneous-lymphatic sporotrichosis patient after 72 hrs by modified NCCLS M38-A method
[30] = tested on: Sporothrix schenckii; experiment: Antifungal activity against Sporothrix schenckii P26187 isolate from cutaneous-lymphatic sporotrichosis patient after 72 hrs by Sensititre YeastOne method
[31] = tested on: Sporothrix schenckii; experiment: Antifungal activity against Sporothrix schenckii P26187 isolate from cutaneous-lymphatic sporotrichosis patient after 72 hrs by ATB Fungus 2 method
[32] = tested on: Sporothrix schenckii; experiment: Antifungal activity against Sporothrix schenckii PGAC0016 isolate from cutaneous-lymphatic sporotrichosis patient after 72 hrs by modified NCCLS M38-A method
[33] = tested on: Sporothrix schenckii; experiment: Antifungal activity against Sporothrix schenckii PGAC0016 isolate from cutaneous-lymphatic sporotrichosis patient after 72 hrs by ATB Fungus 2 method
[34] = tested on: Sporothrix schenckii; experiment: Antifungal activity against Sporothrix schenckii PJRC002 isolate from cutaneous-lymphatic sporotrichosis patient after 72 hrs by Sensititre YeastOne method
[35] = tested on: Sporothrix schenckii; experiment: Antifungal activity against Sporothrix schenckii P14036 isolate from cutaneous-lymphatic sporotrichosis patient after 72 hrs by modified NCCLS M38-A method
[36] = tested on: Sporothrix schenckii; experiment: Antifungal activity against Sporothrix schenckii P14036 isolate from cutaneous-lymphatic sporotrichosis patient after 72 hrs by Sensititre YeastOne method
[37] = tested on: Sporothrix schenckii; experiment: Antifungal activity against Sporothrix schenckii P14036 isolate from cutaneous-lymphatic sporotrichosis patient after 72 hrs by ATB Fungus 2 method
[38] = tested on: Sporothrix schenckii; experiment: Antifungal activity against Sporothrix schenckii P30915 isolate from cutaneous-lymphatic sporotrichosis patient after 72 hrs by Sensititre YeastOne method
[39] = tested on: Sporothrix schenckii; experiment: Antifungal activity against Sporothrix schenckii P30915 isolate from cutaneous-lymphatic sporotrichosis patient after 72 hrs by ATB Fungus 2 method
[40] = tested on: Pichia kudriavzevii; experiment: Antifungal activity against Candida krusei ATCC 6258 […] after 72 hrs by ATB Fungus 2 method; conditions: ATCC 6258, 72 h
[41] = tested on: Candida parapsilosis; experiment: Antifungal activity against Candida parapsilosis ATCC 22019 […] after 72 hrs by modified NCCLS M38-A method; conditions: Lodderomyces parapsilosis, ATCC 22019, 72 h
[42] = tested on: Candida parapsilosis; experiment: Antifungal activity against Candida parapsilosis ATCC 22019 […] after 72 hrs by ATB Fungus 2 method; conditions: Lodderomyces parapsilosis, ATCC 22019, 72 h
[43] = tested on: Sporothrix schenckii; experiment: Antifungal activity against Sporothrix schenckii isolate from cutaneous-lymphatic sporotrichosis patient after 72 hrs by modified NCCLS M38-A method
[44] = tested on: Sporothrix schenckii; experiment: Antifungal activity against Sporothrix schenckii isolate from cutaneous-lymphatic sporotrichosis patient after 72 hrs by Sensititre YeastOne method
[45] = tested on: Sporothrix schenckii; experiment: Antifungal activity against Sporothrix schenckii isolate from cutaneous-lymphatic sporotrichosis patient after 72 hrs by ATB Fungus 2 method

CCC(C)n1ncn(-c2ccc(N3CCN(c4ccc(OCC5COC(Cn6cncn6)(c6ccc(Cl)cc6Cl)O5)cc4)CC3)cc2)c1=O (stereo unspecified) [ITRACONAZOLE]
MIC [1]: 0.25 mg/L (≈ 0.354 µM)
MIC [2]: 0.13 mg/L (≈ 0.184 µM)
MIC [3]: 2 mg/L (≈ 2.83 µM)
MIC [4]: 0.06 mg/L (≈ 0.085 µM)
MIC [5]: 1 mg/L (≈ 1.42 µM)
MIC [6]: 0.5 mg/L (≈ 0.709 µM)
MIC [7]: 0.25 mg/L (≈ 0.354 µM)
MIC [8]: 1 mg/L (≈ 1.42 µM)
MIC [9]: 0.5 mg/L (≈ 0.709 µM)
MIC [10]: 0.13 mg/L (≈ 0.184 µM)
MIC [11]: 1 mg/L (≈ 1.42 µM)
MIC [12]: 1 mg/L (≈ 1.42 µM)
MIC [13]: 0.5 mg/L (≈ 0.709 µM)
MIC [14]: 0.25 mg/L (≈ 0.354 µM)
MIC [15]: 4 mg/L (≈ 5.67 µM)
MIC [16]: 0.5 mg/L (≈ 0.709 µM)
MIC [17]: 0.25 mg/L (≈ 0.354 µM)
MIC [18]: 2 mg/L (≈ 2.83 µM)
MIC [19]: 8 mg/L (≈ 11.3 µM)
MIC [20]: 2 mg/L (≈ 2.83 µM)
MIC [21]: 0.25 mg/L (≈ 0.354 µM)
MIC [22]: 1 mg/L (≈ 1.42 µM)
MIC [23]: 0.5 mg/L (≈ 0.709 µM)
MIC [24]: 1 mg/L (≈ 1.42 µM)
MIC [25]: 0.5 mg/L (≈ 0.709 µM)
MIC [26]: 0.25 mg/L (≈ 0.354 µM)
MIC [27]: 1 mg/L (≈ 1.42 µM)
MIC [28]: 0.25 mg/L (≈ 0.354 µM)
MIC [29]: 0.5 mg/L (≈ 0.709 µM)
MIC [30]: 0.13 mg/L (≈ 0.184 µM)
MIC [31]: 2 mg/L (≈ 2.83 µM)
MIC [32]: 0.5 mg/L (≈ 0.709 µM)
MIC [33]: 2 mg/L (≈ 2.83 µM)
MIC [34]: 0.13 mg/L (≈ 0.184 µM)
MIC [35]: 0.5 mg/L (≈ 0.709 µM)
MIC [36]: 0.25 mg/L (≈ 0.354 µM)
MIC [37]: 1 mg/L (≈ 1.42 µM)
MIC [38]: 0.5 mg/L (≈ 0.709 µM)
MIC [39]: 2 mg/L (≈ 2.83 µM)
MIC [40]: 0.5 mg/L (≈ 0.709 µM)
MIC [41]: 0.5 mg/L (≈ 0.709 µM)
MIC [42]: ≤ 0.125 mg/L
MIC50 [43]: 0.5 mg/L (≈ 0.709 µM)
MIC90 [43]: 0.5 mg/L (≈ 0.709 µM)
MIC50 [44]: 0.25 mg/L (≈ 0.354 µM)
MIC90 [44]: 0.25 mg/L (≈ 0.354 µM)
MIC50 [45]: 1 mg/L (≈ 1.42 µM)
MIC90 [45]: 2 mg/L (≈ 2.83 µM)

OC(Cn1cncn1)(Cn1cncn1)c1ccc(F)cc1F [FLUCONAZOLE]
MIC [1]: > 64 mg/L
MIC [2]: > 256 mg/L
MIC [3]: > 128 mg/L
MIC [4]: 128 mg/L (≈ 418 µM)
MIC [5]: > 128 mg/L
MIC [6]: > 64 mg/L
MIC [7]: 128 mg/L (≈ 418 µM)
MIC [8]: > 128 mg/L
MIC [9]: > 64 mg/L
MIC [10]: 256 mg/L (≈ 836 µM)
MIC [11]: > 128 mg/L
MIC [12]: > 128 mg/L
MIC [13]: > 64 mg/L
MIC [14]: > 256 mg/L
MIC [15]: > 128 mg/L
MIC [16]: > 64 mg/L
MIC [17]: > 256 mg/L
MIC [18]: > 128 mg/L
MIC [19]: > 64 mg/L
MIC [20]: > 128 mg/L
MIC [21]: > 64 mg/L
MIC [22]: > 128 mg/L
MIC [23]: > 64 mg/L
MIC [24]: 128 mg/L (≈ 418 µM)
MIC [25]: > 64 mg/L
MIC [26]: > 256 mg/L
MIC [27]: > 64 mg/L
MIC [28]: > 256 mg/L
MIC [29]: > 64 mg/L
MIC [30]: 128 mg/L (≈ 418 µM)
MIC [31]: > 128 mg/L
MIC [32]: > 64 mg/L
MIC [33]: > 128 mg/L
MIC [34]: > 256 mg/L
MIC [35]: > 128 mg/L
MIC [36]: > 256 mg/L
MIC [37]: > 128 mg/L
MIC [38]: > 256 mg/L
MIC [39]: > 128 mg/L
MIC [40]: 32 mg/L (≈ 104 µM)
MIC [41]: 1 mg/L (≈ 3.27 µM)
MIC [42]: 4 mg/L (≈ 13.1 µM)
MIC50 [43]: > 64 mg/L
MIC90 [43]: > 64 mg/L
MIC50 [44]: > 256 mg/L
MIC90 [44]: > 256 mg/L
MIC50 [45]: > 128 mg/L
MIC90 [45]: > 128 mg/L

Reference: ChEMBL document CHEMBL1150788, “In vitro susceptibility of Sporothrix schenckii to six antifungal agents determined using three different methods” (2007)
